In patent publication US6492366B1, “Cyano-indole serotonin-reuptake inhibitor compound” (Les Laboratoires Servier, priority 1999, dated 2002):

Columns and labels:
[1] = target: T1, serotonin-reuptake sites (Rattus norvegicus, UniProt P31652); test: Determination of affinity for serotonin-reuptake sites in the rat ([3H]-paroxetine competition); type: binding; details: rat frontal cortex membranes, 0.25 nM [3H]-paroxetine, 2 hours at 25° C.
T1 construct: The membranes are prepared from rat frontal cortex; from tissue; host or cells: rat frontal cortex membranes
Description: Determination of Affinity for Serotonin-reuptake Sites in the Rat The affinity of the compounds of the invention was determined by competition experiments with [^3H]-paroxetine. The membranes are prepared from rat frontal cortex and are incubated in triplicate with 0.25 nM [^3H]-paroxetine and the cold ligand in a final volume of 0.4 ml, for 2 hours at 25° C. The incubation buffer contains 50 mM TRIS-HCl (pH 7.4), 120 mM NaCl and 5 mM KCl. Non-specific binding is determined using 10 μM citalopram. At the end of the incubation, the mixture is filtered through filters and washed three times with 5 ml of cooled buffer. The radioactivity retained on the filters is determined by liquid scintillation counting. The binding isotherms are analysed by non-linear regression to determine the IC50 values. The latter are converted into a dissociation constant (Ki) using the Cheng-Prusoff equation: Ki=IC50/[…] wherein L is the concentration of [^3H]-paroxetine and Kd is the dissociation constant (0.13 nM).

[2] = test system: spontaneous marble-burying behaviour of mice; test: Marble-burying test in mice; type: in vivo; details: Mus musculus, 0.5 h; male NMRI mice, 24 marbles, 30 minutes' free exploration; read-out: ED50 (Efficacy dose 50), inhibition of marble-burying
Text: Marble-burying Test in Mice This test enables evaluation of the capacity of pharmacological agents to inhibit the spontaneous marble-burying behaviour of mice, the inhibition being predictive of antidepressant and/or anti-impulsive action. Male mice of the NMRI strain weighing from 20 to 25 g on the day of the experiment are placed individually in Macrolon boxes (30×18×19 cm) containing 5 cm of sawdust and covered with a perforated plexiglass plate. Twenty four “tiger's eye” glass marbles are evenly distributed on the sawdust at the periphery of the box. At the end of 30 minutes' free exploration, the animals are removed from the box and the number of buried marbles is counted.

T1 sequence (P31652 whole entry): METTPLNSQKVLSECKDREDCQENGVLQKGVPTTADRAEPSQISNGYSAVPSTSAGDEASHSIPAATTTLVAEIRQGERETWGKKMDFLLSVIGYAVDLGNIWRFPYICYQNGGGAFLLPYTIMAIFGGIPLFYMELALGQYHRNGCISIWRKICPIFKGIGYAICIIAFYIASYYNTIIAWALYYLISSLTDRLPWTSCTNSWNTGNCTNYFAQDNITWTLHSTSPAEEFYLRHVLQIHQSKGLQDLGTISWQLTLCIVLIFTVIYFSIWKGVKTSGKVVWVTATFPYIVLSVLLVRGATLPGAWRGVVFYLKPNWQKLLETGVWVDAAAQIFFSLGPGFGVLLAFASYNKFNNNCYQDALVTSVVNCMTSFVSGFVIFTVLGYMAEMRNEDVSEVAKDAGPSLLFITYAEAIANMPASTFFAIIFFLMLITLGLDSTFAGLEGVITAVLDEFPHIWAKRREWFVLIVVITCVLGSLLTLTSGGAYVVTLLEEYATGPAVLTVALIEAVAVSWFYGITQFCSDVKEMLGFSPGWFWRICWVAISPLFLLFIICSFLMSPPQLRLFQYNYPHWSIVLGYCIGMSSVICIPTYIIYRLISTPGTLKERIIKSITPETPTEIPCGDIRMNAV

Row | Structure (SMILES) | Ki [1] [nM] | ED50 [2] [mg/kg]
1 | Cl.N#Cc1ccc2[nH]cc(CC3CCN(CCc4cc5c(cc4Cl)NC(=O)C5)C3)c2c1 (stereo not drawn) [Example 6, 3-({1-[2-(6-Chloro-2-oxo-2,3-dihydro-1H-indol-5-yl)ethyl]-3-pyrrolidinyl}methyl)-1H-indole-5-carbonitrile Hydrochloride] | 0.4 | 3.8
2 | Cl.N#Cc1ccc2[nH]cc(CC3CCN(CCc4ccc5c(c4)CC(=O)N5)C3)c2c1 (stereo not drawn) [Example 7, 3-({1-[2-(2-Oxo-2,3-dihydro-1H-indol-5-yl)ethyl]-3-pyrrolidinyl}-methyl)-1H-indole-5-carbonitrile Hydrochloride] | – | 1.5
